Measurements as given in patent US20260295053A1, “COMPOUNDS FOR DEGRADATION AND INHIBITION OF KRAS (G12D) PROTEIN” (Shenzhen Ionova Life Science Co., Ltd., priority 2023, published 2026).

These molecules were tested against T1, KRAS (G12D) (Homo sapiens, UniProt P01116, G12D) (assay: KRAS (G12D) cellular degradation assay in AsPC-1 cells). Conditions: 24 hours, antibody fluorescence (Odyssey CLX), DC50 half-maximal degradation concentration.
T1 construct: in-cell western with KRAS G12D antibody after 24 h
Format: cell-based
Method in brief: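 Half-maximal degradation (DC50) and inhibition (IC50) concentrations are fitted from dose-response curves spanning […] to 1.5 nM final. KRAS G12D loss is measured by fluorescent antibody staining with β-actin reference after 24 h; growth is measured by ATP luminescence after a 6-day exposure.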

T1 sequence (P01116 1-188 isoform P01116-2 G12D): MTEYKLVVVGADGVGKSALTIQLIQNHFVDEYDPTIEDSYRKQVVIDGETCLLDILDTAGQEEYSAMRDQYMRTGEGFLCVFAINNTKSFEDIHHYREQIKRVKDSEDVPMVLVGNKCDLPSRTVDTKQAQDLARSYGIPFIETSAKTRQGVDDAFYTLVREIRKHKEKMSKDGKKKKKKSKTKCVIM

| SMILES | DC50 [nM] |
| --- | --- |
| CCn1nccc1-c1ccc([C@@H](NC(=O)[C@@H]2C[C@@H](O)CN2C(=O)[C@H](C(C)C)n2cc(-c3ccc(COc4c(-c5c(C)c(F)c(F)c6[nH]ncc56)c(C5CC5)cc5c(N(C)[C@H]6CCNC6)nc(OC[C@H](C)OC)nc45)cc3)nn2)[C@H](C)O)cc1 [Example 146, (2S,4R)-1-((2S)-2-(4-(4-(((6-cyclopropyl-7-(6,7-difluoro-5-methyl-1H-indazol-4-yl)-2-((S)-2-methoxypropoxy)-4-(methyl((S)-pyrrolidin-3-yl)amino)quinazolin-8-yl)oxy)methyl)phenyl)-1H-1,2,3-triazol-1-yl)-3-methylbutanoyl)-N-((1R,2S)-1-(4-(1-ethyl-1H-pyrazol-5-yl)phenyl)-2-hydroxypropyl)-4-hydroxypyrrolidine-2-carboxamide] | 10 to 100 |
| Cc1ncsc1-c1ccc([C@H](CO)NC(=O)[C@@H]2C[C@@H](O)CN2C(=O)[C@H](C(C)C)n2cc(-c3ccc(COc4c(-c5c(C)c(F)cc6[nH]ncc56)c(C5CC5)cc5c(N6C[C@H]7C[C@@H]6CN7)nc(OC6CCOCC6)nc45)cc3)nn2)cc1 (single isomer, unassigned) [Example 5A] | < 10 |
| Cc1ncsc1-c1ccc([C@H](CO)NC(=O)[C@@H]2C[C@@H](O)CN2C(=O)[C@H](C(C)C)n2cc(-c3ccc(COc4c(-c5c(C)c(F)c(F)c6[nH]ncc56)c(C5CCC5)cc5c(N6C[C@@H]7C[C@H]6CN7)nc(OC6CCOCC6)nc45)cc3)nn2)cc1 [Example 120, (2S,4R)-1-((2S)-2-(4-(4-(((4-((1S,4S)-2,5-diazabicyclo[2.2.1]heptan-2-yl)-6-cyclobutyl-7-(6,7-difluoro-5-methyl-1H-indazol-4-yl)-2-((tetrahydro-2H-pyran-4-yl)oxy)quinazolin-8-yl)oxy)methyl)phenyl)-1H-1,2,3-triazol-1-yl)-3-methylbutanoyl)-4-hydroxy-N—((R)-2-hydroxy-1-(4-(4-methylthiazol-5-yl)phenyl)ethyl)pyrrolidine-2-carboxamide] | 10 to 100 |
| CO[C@@H](C)COc1nc(N2C[C@@H]3CN[C@@H](C3)C2)c2cc(C3CC3)c(-c3c(C)c(F)cc4[nH]ncc34)c(OCc3ccc(-c4cn([C@H](C(=O)N5C[C@H](O)C[C@H]5C(=O)N[C@@H](CO)c5ccc(-c6scnc6C)cc5)C(C)C)nn4)cc3)c2n1 [Example 230, (2S,4R)-1-((2S)-2-(4-(4-(((4-((1S,5S)-3,6-diazabicyclo[3.2.1]octan-3-yl)-6-cyclopropyl-7-(6-fluoro-5-methyl-1H-indazol-4-yl)-2-((S)-2-methoxypropoxy)quinazolin-8-yl)oxy)methyl)phenyl)-1H-1,2,3-triazol-1-yl)-3-methylbutanoyl)-4-hydroxy-N—((R)-2-hydroxy-1-(4-(4-methylthiazol-5-yl)phenyl)ethyl)pyrrolidine-2-carboxamide] | 10 to 100 |
| CO[C@@H](C)COc1nc(N2C[C@@H]3C[C@H]2CN3)c2cc(C3CC3)c(-c3c(C)c(F)cc4[nH]ncc34)c(OCc3ccc(-c4cn([C@H](C(=O)N5C[C@H](O)C[C@H]5C(=O)N[C@H](C#Cc5cncc6nn(C)cc56)CO)C(C)C)nn4)cc3)c2n1 [Example 185, (2S,4R)-1-((2S)-2-(4-(4-(((4-((1S,4S)-2,5-diazabicyclo[2.2.1]heptan-2-yl)-6-cyclopropyl-7-(6-fluoro-5-methyl-1H-indazol-4-yl)-2-((S)-2-methoxypropoxy)quinazolin-8-yl)oxy)methyl)phenyl)-1H-1,2,3-triazol-1l-yl)-3-methylbutanoyl)-4-hydroxy-N—((R)-1-hydroxy-4-(2-methyl-2H-pyrazolo[3,4-c]pyridin-4-yl)but-3-yn-2-yl)pyrrolidine-2-carboxamide] | 10 to 100 |
| CCn1nccc1-c1ccc([C@H](CO)NC(=O)[C@@H]2C[C@@H](O)CN2C(=O)[C@H](C(C)C)n2cc(-c3ccc(COc4c(-c5c(C)c(F)cc6[nH]ncc56)c(C5CC5)cc5c(N6C[C@@H]7C[C@H]6CN7)nc(N6CC(OC)C6)nc45)cc3)nn2)cc1 [Example 126, (2S,4R)-1-((2S)-2-(4-(4-(((4-((1S,4S)-2,5-diazabicyclo[2.2.1]heptan-2-yl)-6-cyclopropyl-7-(6-fluoro-5-methyl-1H-indazol-4-yl)-2-(3-methoxyazetidin-1-yl)quinazolin-8-yl)oxy)methyl)phenyl)-1H-1,2,3-triazol-1-yl)-3-methylbutanoyl)-N—((R)-1-(4-(1-ethyl-1H-pyrazol-5-yl)phenyl)-2-hydroxyethyl)-4-hydroxypyrrolidine-2-carboxamide] | 10 to 100 |
| CCn1nccc1-c1ccc([C@@H](NC(=O)[C@@H]2C[C@@H](O)CN2C(=O)[C@H](C(C)C)n2cc(-c3ccc(COc4c(-c5c(C)c(F)cc6[nH]ncc56)c(C5CC5)cc5c(N(C)[C@@H]6CCNC6)nc(O[C@H]6C[C@H](OC)C6)nc45)cc3)nn2)[C@H](C)O)cc1F [Example 220, (2S,4R)-1-((2S)-2-(4-(4-(((6-cyclopropyl-7-(6-fluoro-5-methyl-1H-indazol-4-yl)-2-((1r,3R)-3-methoxycyclobutoxy)-4-(methyl((R)-pyrrolidin-3-yl)amino)quinazolin-8-yl)oxy)methyl)phenyl)-1H-1,2,3-triazol-1-yl)-3-methylbutanoyl)-N-((1R,2S)-1-(4-(1-ethyl-1H-pyrazol-5-yl)-3-fluorophenyl)-2-hydroxypropyl)-4-hydroxypyrrolidine-2-carboxamide] | < 10 |

Results, then the molecule that gave them:

| DC50 [nM] | SMILES |
| --- | --- |
| > 1000 | CCn1nccc1-c1ccc([C@H](CO)NC(=O)[C@@H]2C[C@@H](O)CN2C(=O)[C@H](C(C)C)n2cc(-c3ccc(COc4c(-c5c(C)c(F)cc6[nH]ncc56)c(C5CC5)cc5c(N6CC7CCC(C6)N7)nc(OC[C@H](C)OC)nc45)cc3)nn2)cc1 (single isomer, unassigned) [Example 13B] |
| < 10 | CO[C@H]1CC[C@H](Oc2nc(N3C[C@@H]4C[C@H]3CN4)c3cc(C4CC4)c(-c4c(C)c(F)cc5[nH]ncc45)c(OCc4ccc(-c5cn([C@H](C(=O)N6C[C@H](O)C[C@H]6C(=O)N[C@H](c6ccc(-c7scnc7C)cc6)[C@H](C)O)C(C)C)nn5)cc4)c3n2)C1 [Example 215, (2S,4R)-1-((2S)-2-(4-(4-(((4-((1S,4S)-2,5-diazabicyclo[2.2.1]heptan-2-yl)-6-cyclopropyl-7-(6-fluoro-5-methyl-1H-indazol-4-yl)-2-(((1S,3S)-3-methoxycyclopentyl)oxy)quinazolin-8-yl)oxy)methyl)phenyl)-1H-1,2,3-triazol-1-yl)-3-methylbutanoyl)-4-hydroxy-N-((1R,2S)-2-hydroxy-1-(4-(4-methylthiazol-5-yl)phenyl)propyl)pyrrolidine-2-carboxamide] |
| > 1000 | CCn1nccc1-c1ccc([C@H](CO)NC(=O)[C@@H]2C[C@@H](O)CN2C(=O)[C@H](C(C)C)n2cc(-c3ccc(COc4c(-c5c(C)c(F)cc6[nH]ncc56)c(C5CC5)cc5c(N(C)C[C@H]6CCCN6)nc(OC[C@H](C)OC)nc45)cc3)nn2)cc1 [Example 218, (2S,4R)-1-((2S)-2-(4-(4-(((6-cyclopropyl-7-(6-fluoro-5-methyl-1H-indazol-4-yl)-2-((S)-2-methoxypropoxy)-4-(methyl(((R)-pyrrolidin-2-yl)methyl)amino)quinazolin-8-yl)oxy)methyl)phenyl)-1H-1,2,3-triazol-1-yl)-3-methylbutanoyl)-N—((R)-1-(4-(1-ethyl-1H-pyrazol-5-yl)phenyl)-2-hydroxyethyl)-4-hydroxypyrrolidine-2-carboxamide] |
| < 10 | CCn1nccc1-c1ccc([C@H](CO)NC(=O)[C@@H]2C[C@@H](O)CN2C(=O)[C@H](C(C)C)n2cc(-c3ccc(COc4c(-c5c(C)c(F)cc6[nH]ncc56)c(C5CC5)cc5c(N(C)C[C@@H]6CCNC6)nc(OC[C@H](C)OC)nc45)cc3)nn2)cc1 [Example 216, (2S,4R)-1-((2S)-2-(4-(4-(((6-cyclopropyl-7-(6-fluoro-5-methyl-1H-indazol-4-yl)-2-((S)-2-methoxypropoxy)-4-(methyl(((R)-pyrrolidin-3-yl)methyl)amino)quinazolin-8-yl)oxy)methyl)phenyl)-1H-1,2,3-triazol-1-yl)-3-methylbutanoyl)-N—((R)-1-(4-(1-ethyl-1H-pyrazol-5-yl)phenyl)-2-hydroxyethyl)-4-hydroxypyrrolidine-2-carboxamide] |
| 10 to 100 | CO[C@@H](C)COc1nc(N2C[C@@H]3C[C@H]2CN3)c2cc(C3CC3)c(-c3c(C)c(F)cc4[nH]ncc34)c(OCc3ccc(-c4cn([C@H](C(=O)N5C[C@H](O)C[C@H]5C(=O)N[C@H](C#Cc5cnccc5Cl)CO)C(C)C)nn4)cc3)c2n1 [Example 108, (2S,4R)-1-((2S)-2-(4-(4-(((4-((1S,4S)-2,5-diazabicyclo[2.2.1]heptan-2-yl)-6-cyclopropyl-7-(6-fluoro-5-methyl-1H-indazol-4-yl)-2-((S)-2-methoxypropoxy)quinazolin-8-yl)oxy)methyl)phenyl)-1H-1,2,3-triazol-1-yl)-3-methylbutanoyl)-N—((R)-4-(4-chloropyridin-3-yl)-1-hydroxybut-3-yn-2-yl)-4-hydroxypyrrolidine-2-carboxamide] |
| < 10 | CO[C@@H](C)COc1nc(N2CCCNCC2)c2cc(C3CC3)c(-c3c(C)c(F)cc4[nH]ncc34)c(OCc3ccc(-c4cn([C@H](C(=O)N5C[C@H](O)C[C@H]5C(=O)N[C@@H](CO)c5ccc(-c6scnc6C)c6c5CC6)C(C)C)nn4)cc3)c2n1 [Example 219, (2S,4R)-1-((2S)-2-(4-(4-(((6-cyclopropyl-4-(1,4-diazepan-1-yl)-7-(6-fluoro-5-methyl-1H-indazol-4-yl)-2-((S)-2-methoxypropoxy)quinazolin-8-yl)oxy)methyl)phenyl)-1H-1,2,3-triazol-1-yl)-3-methylbutanoyl)-4-hydroxy-N—((R)-2-hydroxy-1-(5-(4-methylthiazol-5-yl)bicyclo[4.2.0]octa-1(6),2,4-trien-2-yl)ethyl)pyrrolidine-2-carboxamide] |
